From patent publication US20060166236A1, “Allosteric enzyme coupled immunoassay (AECIA)” (priority 2004, published 2006) come the findings set out here.

pEC50: −log10 of the molar value.

Test [1] has as its target T1, rat liver PFK (ATP-dependent fructose-6-phosphate kinase, EC2.7.1.11) (Rattus norvegicus, UniProt P30835).
T1 construct: Fresh livers from rats were homogenized in a homogenizer with 3 volumes of chilled buffer; from tissue; host or cells: rat liver
T1 sequence (P30835 1-780): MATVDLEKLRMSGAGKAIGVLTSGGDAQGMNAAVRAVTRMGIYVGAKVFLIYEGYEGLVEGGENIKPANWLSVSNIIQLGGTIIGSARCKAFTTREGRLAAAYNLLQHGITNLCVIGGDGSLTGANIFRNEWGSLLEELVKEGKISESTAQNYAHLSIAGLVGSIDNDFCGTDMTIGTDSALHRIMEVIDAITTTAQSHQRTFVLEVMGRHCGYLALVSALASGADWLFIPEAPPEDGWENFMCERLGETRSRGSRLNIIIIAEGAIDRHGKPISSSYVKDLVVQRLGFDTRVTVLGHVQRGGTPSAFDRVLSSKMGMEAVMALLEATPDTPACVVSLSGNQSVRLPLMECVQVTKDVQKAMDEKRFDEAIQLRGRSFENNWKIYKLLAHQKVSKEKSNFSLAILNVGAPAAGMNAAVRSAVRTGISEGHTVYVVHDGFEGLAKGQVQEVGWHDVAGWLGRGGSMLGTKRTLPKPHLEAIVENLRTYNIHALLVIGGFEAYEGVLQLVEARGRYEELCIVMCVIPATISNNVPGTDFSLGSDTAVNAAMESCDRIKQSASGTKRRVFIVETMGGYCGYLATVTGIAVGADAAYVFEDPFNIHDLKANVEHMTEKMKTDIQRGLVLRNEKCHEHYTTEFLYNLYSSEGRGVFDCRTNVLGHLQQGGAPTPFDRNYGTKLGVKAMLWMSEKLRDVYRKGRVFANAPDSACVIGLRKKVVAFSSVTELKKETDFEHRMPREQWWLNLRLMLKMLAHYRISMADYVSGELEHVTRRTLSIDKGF
In words: Stimulation assay of rat liver phosphofructokinase by Fructose 2,6 Pi. The format is biochemical. The settings on record: in the presence of 2 mM fructose 6-phosphate and 1 mM AMP; pH 7.1, 22° C.; 3 mM ATP; FIG. 4; read-out: half-maximal effect (activation of rat liver PFK). The method, then:
ATP-dependent fructose-6-phosphate kinase (EC2.7.1.11) was purified from rat livers according to the procedures described in Reinhart and Lardy., Biochemistry, 19:1477-1484 (1980). The purification procedure includes a heat step, ammonium sulfate precipitation, and DEAE ion-exchange and gel filtration chromatography as follows:
The assay was performed at pH 7.1 and 22° C. The incubation mixture contained 100 mM KCl, 1 mM NH4Cl, 0.15 mM NADH, 50 mM Hepes buffer, 50 μg/ml aldolase, 10 μg/ml glycerol-3-phosphate dehydrogenase, 1 μg/ml triose phosphate isomerase, 5 mM MgCl2, 1 mM AMP, 2 mM fructose 6-phosphate, and 0.2 mM Pi. The reaction was initiated by adding 3 mM ATP.

Test [2] has as its target T2, potato tuber PPi-PFK (pyrophosphate-dependent fructose-6-phosphate kinase, EC2.7.1.90) (Solanum tuberosum, UniProt P21342+P21343).
T2 construct: Peeled potato tubers (330 g) were homogenized in a blendor; from tissue; host or cells: potato tubers
T2 sequence (P21342 1-616): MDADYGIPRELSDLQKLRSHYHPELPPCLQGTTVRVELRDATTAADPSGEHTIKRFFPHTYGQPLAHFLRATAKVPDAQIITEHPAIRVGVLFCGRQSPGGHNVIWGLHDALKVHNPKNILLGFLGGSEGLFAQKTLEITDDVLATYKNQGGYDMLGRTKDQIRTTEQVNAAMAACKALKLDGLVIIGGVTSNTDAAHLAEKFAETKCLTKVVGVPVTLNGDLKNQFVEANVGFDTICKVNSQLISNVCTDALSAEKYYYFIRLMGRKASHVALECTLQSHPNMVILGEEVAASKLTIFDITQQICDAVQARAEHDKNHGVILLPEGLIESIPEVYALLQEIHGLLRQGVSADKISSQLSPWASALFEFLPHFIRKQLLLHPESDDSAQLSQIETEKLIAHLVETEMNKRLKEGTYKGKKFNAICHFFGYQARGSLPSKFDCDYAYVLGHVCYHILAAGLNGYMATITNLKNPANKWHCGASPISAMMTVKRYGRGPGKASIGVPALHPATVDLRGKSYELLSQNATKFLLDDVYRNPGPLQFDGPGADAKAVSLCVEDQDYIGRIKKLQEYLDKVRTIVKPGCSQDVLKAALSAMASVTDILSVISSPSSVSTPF
T2 sequence (P21343 1-569): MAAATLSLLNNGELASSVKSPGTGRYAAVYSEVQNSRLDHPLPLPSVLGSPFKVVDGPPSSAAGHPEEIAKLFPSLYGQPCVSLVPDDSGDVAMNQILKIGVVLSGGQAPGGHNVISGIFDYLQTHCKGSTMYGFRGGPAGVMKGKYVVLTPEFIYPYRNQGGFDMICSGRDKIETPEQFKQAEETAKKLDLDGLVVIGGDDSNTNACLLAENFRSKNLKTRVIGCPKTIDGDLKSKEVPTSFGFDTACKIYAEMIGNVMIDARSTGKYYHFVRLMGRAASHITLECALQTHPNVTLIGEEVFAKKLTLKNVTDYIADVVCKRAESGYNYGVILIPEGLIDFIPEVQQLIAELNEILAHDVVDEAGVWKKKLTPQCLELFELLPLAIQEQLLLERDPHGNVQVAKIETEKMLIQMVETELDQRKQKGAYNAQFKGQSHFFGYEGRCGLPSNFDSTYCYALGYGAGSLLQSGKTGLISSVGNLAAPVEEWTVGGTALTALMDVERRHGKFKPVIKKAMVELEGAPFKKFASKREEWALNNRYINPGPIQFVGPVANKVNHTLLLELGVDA
In words: Stimulation assay of potato tuber PPi-PFK by Fructose 2,6 Pi. The format is biochemical. The settings on record: in the presence of 1 mM fructose 6-phosphate and 2.5 mM PPi; FIG. 3; read-out: half-maximal effect (activation of potato tuber PPi-PFK). How it is done:
Potato tubers PPi-PFK was purified according to the procedure described in Van Schafingen et al., Eur. J. Biochem., 129:191-195 (1982). Peeled potato tubers (330 g) were homogenized in a blendor with 2 volume of ice-cold 20 mM Hepes pH8.2 containing 20 mM potassium acetate and 2 mM dithiothreitol. The homogenate was filtered through cheese cloth. Solid sodium pyrophosphate and 1 mM MgCl2 were added to the filtrate to reach 2 mM and the pH was adjusted to 8.2 at 0° C. The mixture was brought to 59° C. by shaking in a water bath adjusted to 70° C. and maintained for 5 min in a water bath at 59° C.; it was then cooled and brought to pH 7.1 at 0° C. All subsequent steps were carried out at 0-4° C. Six (6) g of poly(ethylene glycol) 6000 were added per 100 ml of solution and after mixing for 15 min, the preparation was allowed to stand for 10 min and then centrifuged for 10 min at 4000×g; 8 g of poly(ethylene glycol) were then added per 100 ml of the resulting supernatant (700 ml) which was mixed and centrifuged as described above. The resulting pellet was dissolved in 40 ml of a solution containing 20 mM Tris, pH8.2, 20 mM KCl, and 2 mM dithiothreitol and applied to a column (25×120 mm) of DEAE-cellulose equilibrated with the same buffer. The column was washed with 100 ml of buffer and developed with a gradient of KCl (20-400 mM) in the same dithiothreitol/Tris buffer. […]

Consider `O=P(O)(O)OCC1OC(CO)(OP(=O)(O)O)C(O)C1O` (centres unmarked) [fructose 2, 6 Pi, fructose-2,6-bisphosphate], for which the pEC50 in test [1] is roughly 7.40; in test [2], roughly 8.26.
